Source: ChEMBL document CHEMBL3046531, “Analgesic study of novel pyrimidine derivatives linked with coumarin moiety” (2012)

Tests used:
Format in all cases: functional
Mus musculus [1] = assay: Analgesic activity in Mus musculus Swiss albino (mouse) assessed as protection against acetic acid-induced writhing response at 20 mg/kg, po administered 30 min before acetic acid challenge measured at 2 hr after challenge
Mus musculus [2] = assay: Analgesic activity in Mus musculus Swiss albino (mouse) assessed as protection against acetic acid-induced writhing response at 20 mg/kg, po administered 30 min before acetic acid challenge measured at 1 hr after challenge
Mus musculus [3] = assay: Analgesic activity in Mus musculus Swiss albino (mouse) assessed as protection against acetic acid-induced writhing response at 20 mg/kg, po administered 30 min before acetic acid challenge measured at 0.5 hr after challenge

For Nc1nc(-c2cccc(Cl)c2)cc(-c2cc3ccccc3oc2=O)n1, which Activity (Mus musculus [1]) is on record?
Its Activity is 56.5%.

And the Activity (Mus musculus [2])?
Its Activity is 60.58%.

And the Activity (Mus musculus [3])?
Its Activity is 52.21%.

For COc1cccc(-c2cc(-c3cc4ccccc4oc3=O)nc(N)n2)c1, which Activity (Mus musculus [1]) is on record?
Its Activity is 49.3%.

And the Activity (Mus musculus [2])?
The Activity was 53.52%.

What about the Activity (Mus musculus [3]) of the same compound?
Its Activity is 46.51%.

Which results are given for Nc1nc(-c2ccc(Cl)cc2)cc(-c2cc3ccccc3oc2=O)n1?
Activity (Mus musculus [1]): 10.8%; Activity (Mus musculus [2]): 12.35%; Activity (Mus musculus [3]): 9.49%

With Nc1nc(-c2cccc(Br)c2)cc(-c2cc3ccccc3oc2=O)n1 as the compound, how does the Activity (Mus musculus [1]) read?
Its Activity is 31.57%.

And the Activity (Mus musculus [2])?
Its Activity is 33.52%.

And the Activity (Mus musculus [3])?
Its Activity is 25.94%.

Nc1nc(-c2ccc(Br)cc2)cc(-c2cc3ccccc3oc2=O)n1 was tested. Which Activity (Mus musculus [1]) did it give?
The Activity was 26.59%.

And the Activity (Mus musculus [2])?
The Activity was 29.41%.

And the Activity (Mus musculus [3])?
The Activity was 28.16%.

COc1ccccc1-c1cc(-c2cc3ccccc3oc2=O)nc(N)n1 was tested. Which Activity (Mus musculus [1]) did it give?
The Activity was 33.79%.

What about the Activity (Mus musculus [2]) of the same compound?
Its Activity is 35.58%.

What about the Activity (Mus musculus [3]) of the same compound?
The Activity was 35.44%.

Nc1nc(-c2ccccc2Cl)cc(-c2cc3ccccc3oc2=O)n1 was tested. Which Activity (Mus musculus [1]) did it give?
The Activity was 11.63%.

What about the Activity (Mus musculus [2]) of the same compound?
The Activity was 12.05%.

What about the Activity (Mus musculus [3]) of the same compound?
The Activity was 8.22%.

With Nc1nc(-c2ccccc2Br)cc(-c2cc3ccccc3oc2=O)n1 as the compound, how does the Activity (Mus musculus [1]) read?
The Activity was 27.7%.

And the Activity (Mus musculus [2])?
The Activity was 30.58%.

What about the Activity (Mus musculus [3]) of the same compound?
Its Activity is 23.41%.

For O=C([O-])Cc1ccccc1Nc1c(Cl)cccc1Cl.[Na+] [DICLOFENAC SODIUM], which Activity (Mus musculus [1]) is on record?
The Activity was 93.35%.

What about the Activity (Mus musculus [2]) of the same compound?
Its Activity is 96.76%.

And the Activity (Mus musculus [3])?
Its Activity is 91.13%.
